This passage reports Ki results from patent US11014911B2, “CDK2 inhibitors” (Pfizer Inc., priority 2019, dated 2021).

This assay deals with CDK2/Cyclin E1 full length (Homo sapiens (Human), UniProt P24941). As to the kind of experiment: CDK2/Cyclin E1 full length mobility shift assay. Format: biochemical.

By Ki is commonly meant a measure of affinity in units of concentration, obtained from inhibition or displacement. Regarding `COc1ccc(S(C)(=O)=O)c(CC(=O)Nc2cc([C@H]3CC[C@@H](OC(=O)NCCC(F)(F)F)C3)[nH]n2)c1` [Example 224, (1R,3S)-3-[3-({[5-methoxy-2-(methylsulfonyl)phenyl]acetyl}amino)-1H-pyrazol-5-yl]cyclopentyl (3,3,3-trifluoropropyl)carbamate], the Ki turned out to be 0.31 nM. `CCCN(CCC)C(=O)O[C@@H]1CC[C@H](c2cc(NC(=O)Cc3ccno3)n[nH]2)C1` [Example 225, (1R,3S)-3-{3-[(1,2-oxazol-5-ylacetyl)amino]-1H-pyrazol-5-yl}cyclopentyl dipropylcarbamate]: the Ki was found to be 2.67 nM.

As for `CCNC(=O)O[C@@H]1CC[C@H](c2cc(NC(=O)Cc3ccc(F)cc3)n[nH]2)C1` [Example 228, (1R,3S)-3-(3-{[(4-fluorophenyl)acetyl]amino}-1H-pyrazol-5-yl)cyclopentyl ethylcarbamate], the inhibition constant (Ki) worked out at 1.84 nM.

Consider `CCNC(=O)O[C@@H]1CC[C@H](c2cc(NC(=O)Cc3cnc(C)s3)n[nH]2)C1` [Example 229, (1R,3S)-3-(3-{[(2-methyl-1,3-thiazol-5-yl)acetyl]amino}-1H-pyrazol-5-yl)cyclopentyl ethylcarbamate], for which the inhibition constant Ki was 2.06 nM. Take `CCNC(=O)O[C@@H]1CC[C@H](c2cc(NC(=O)Cc3cccc4scnc34)n[nH]2)C1` [Example 234, (1R,3S)-3-{3-[(1,3-benzothiazol-4-ylacetyl)amino]-1H-pyrazol-5-yl}cyclopentyl ethylcarbamate]: the Ki came to 4.11 nM.

In the case of `CCNC(=O)O[C@@H]1CC[C@H](c2cc(NC(=O)Cc3cccc4ncsc34)n[nH]2)C1` [Example 235, (1R,3S)-3-{3-[(1,3-benzothiazol-7-ylacetyl)amino]-1H-pyrazol-5-yl}cyclopentyl ethylcarbamate], the Ki worked out at 2.33 nM. Take `CCN(C)C(=O)O[C@@H]1CC[C@H](c2cc(NC(=O)Cc3ccno3)n[nH]2)C1` [Example 236, (1R,3S)-3-{3-[(1,2-oxazol-5-ylacetyl)amino]-1H-pyrazol-5-yl}cyclopentyl ethyl(methyl)carbamate]: the Ki is 3.16 nM. Consider `O=C(Cc1ccno1)Nc1cc([C@H]2CC[C@@H](OC(=O)NCC(F)F)C2)[nH]n1` [Example 246, (1R,3S)-3-{3-[(1,2-oxazol-5-ylacetyl)amino]-1H-pyrazol-5-yl}cyclopentyl (2,2-difluoroethyl)carbamate], for which the Ki worked out at 3.29 nM. As for `O=C(Cc1ccc(F)cc1)Nc1cc([C@H]2CC[C@@H](OC(=O)NCC(F)F)C2)[nH]n1` [Example 248, (1R,3S)-3-(3-{[(4-fluorophenyl)acetyl]amino}-1H-pyrazol-5-yl)cyclopentyl (2,2-difluoroethyl)carbamate], the figure is 2.41 nM; as for `Cc1ncc(CC(=O)Nc2cc([C@H]3CC[C@@H](OC(=O)NCC(F)F)C3)[nH]n2)s1` [Example 249, (1R,3S)-3-(3-{[(2-methyl-1,3-thiazol-5-yl)acetyl]amino}-1H-pyrazol-5-yl)cyclopentyl (2,2-difluoroethyl)carbamate], 2.32 nM; as for `COc1cc(CC(=O)Nc2cc([C@H]3CC[C@@H](OC(=O)NCC(F)F)C3)[nH]n2)ccn1` [Example 251, (1R,3S)-3-(3-{[(2-methoxypyridin-4-yl)acetyl]amino}-1H-pyrazol-5-yl)cyclopentyl (2,2-difluoroethyl)carbamate], 1.83 nM. Consider `Cc1ncc(CC(=O)Nc2cc([C@H]3CC[C@@H](OC(=O)NCC(F)(F)F)C3)[nH]n2)s1` [Example 254, (1R,3S)-3-(3-{[(2-methyl-1,3-thiazol-5-yl)acetyl]amino}-1H-pyrazol-5-yl)cyclopentyl (2,2,2-trifluoroethyl)carbamate], for which the Ki amounted to 2.17 nM. For `COc1cc(CC(=O)Nc2cc([C@H]3CC[C@@H](OC(=O)NCC(F)(F)F)C3)[nH]n2)ccn1` [Example 255, (1R,3S)-3-(3-{[(2-methoxypyridin-4-yl)acetyl]amino}-1H-pyrazol-5-yl)cyclopentyl (2,2,2-trifluoroethyl)carbamate], the Ki stood at 1.69 nM. In the case of `CNC(=O)O[C@@H]1CC[C@H](c2cc(NC(=O)Cc3ccc(OC)nc3)n[nH]2)C1` [Example 256, (1R,3S)-3-(3-{[(6-methoxypyridin-3-yl)acetyl]amino}-1H-pyrazol-5-yl)cyclopentyl methylcarbamate], the Ki was 2.58 nM. `COc1cc(CC(=O)Nc2cc([C@@H]3CC[C@H](OC(N)=O)C3)[nH]n2)ccn1` [Example 257, (1S,3R)-3-(3-{[(2-methoxypyridin-4-yl)acetyl]amino}-1H-pyrazol-5-yl)cyclopentyl carbamate]: the Ki was 4.2 nM. `CC(C)NC(=O)O[C@@H]1CC[C@H](c2cc(NC(=O)c3cncn3C)n[nH]2)C1` [Example 260, (1R,3S)-3-(3-{[(1-methyl-1H-imidazol-5-yl)carbonyl]amino}-1H-pyrazol-5-yl)cyclopentyl propan-2-ylcarbamate]: the Ki is 2.89 nM. Consider `CC(C)NC(=O)O[C@H]1CC[C@@H](c2cc(NC(=O)Cc3ccccn3)n[nH]2)C1` [Example 264, (1S,3R)-3-{3-[(pyridin-2-ylacetyl)amino]-1H-pyrazol-5-yl}cyclopentyl propan-2-ylcarbamate], for which the Ki amounted to 1.83 nM. The result for `CC(C)NC(=O)O[C@@H]1CC[C@H](c2cc(NC(=O)Cc3ccccn3)n[nH]2)C1` [Example 265, (1R,3S)-3-{3-[(pyridin-2-ylacetyl)amino]-1H-pyrazol-5-yl}cyclopentyl propan-2-ylcarbamate] reads 1.91 nM. On to `CC(C)NC(=O)O[C@@H]1CC[C@H](c2cc(NC(=O)Cc3ccn(C)n3)n[nH]2)C1` [Example 267, (1R,3S)-3-(3-{[(1-methyl-1H-pyrazol-3-yl)acetyl]amino}-1H-pyrazol-5-yl)cyclopentyl propan-2-ylcarbamate], for which the inhibition constant Ki was 3.02 nM. As for `Cc1cc(CC(=O)Nc2cc([C@@H]3CC[C@H](OC(=O)NC(C)C)C3)[nH]n2)no1` [Example 268, (1S,3R)-3-(3-{[(5-methyl-1,2-oxazol-3-yl)acetyl]amino}-1H-pyrazol-5-yl)cyclopentyl propan-2-ylcarbamate], the Ki turned out to be 0.97 nM. As to `Cc1cc(CC(=O)Nc2cc([C@H]3CC[C@@H](OC(=O)NC(C)C)C3)[nH]n2)no1` [Example 269, (1R,3S)-3-(3-{[(5-methyl-1,2-oxazol-3-yl)acetyl]amino}-1H-pyrazol-5-yl)cyclopentyl propan-2-ylcarbamate], the Ki was found to be 1.68 nM.

For the compound `Cc1cnc(CC(=O)Nc2cc([C@H]3CC[C@@H](OC(=O)NC(C)C)C3)[nH]n2)o1` [Example 271, (1R,3S)-3-(3-{[(5-methyl-1,3-oxazol-2-yl)acetyl]amino}-1H-pyrazol-5-yl)cyclopentyl propan-2-ylcarbamate], the Ki was determined as 1.57 nM. Regarding `Cc1cnc(CC(=O)Nc2cc([C@H]3CC[C@@H](OC(=O)NC(C)C)C3)[nH]n2)s1` [Example 273, (1R,3S)-3-(3-{[(5-methyl-1,3-thiazol-2-yl)acetyl]amino}-1H-pyrazol-5-yl)cyclopentyl propan-2-ylcarbamate], the inhibition constant (Ki) worked out at 3.08 nM. As for `Cc1csc(CC(=O)Nc2cc([C@H]3CC[C@@H](OC(=O)NC(C)C)C3)[nH]n2)n1` [Example 274, (1R,3S)-3-(3-{[(4-methyl-1,3-thiazol-2-yl)acetyl]amino}-1H-pyrazol-5-yl)cyclopentyl propan-2-ylcarbamate], the figure is 2.62 nM; as for `COc1cnc(CC(=O)Nc2cc([C@H]3CC[C@@H](OC(=O)NC(C)C)C3)[nH]n2)cn1` [Example 277, (1R,3S)-3-(3-{[(5-methoxypyrazin-2-yl)acetyl]amino}-1H-pyrazol-5-yl)cyclopentyl propan-2-ylcarbamate], 0.98 nM. As to `COc1cnc(CC(=O)Nc2cc([C@H]3CC[C@@H](OC(=O)NC(C)C)C3)[nH]n2)s1` [Example 280, (1R,3S)-3-(3-{[(5-methoxy-1,3-thiazol-2-yl)acetyl]amino}-1H-pyrazol-5-yl)cyclopentyl propan-2-ylcarbamate], the Ki worked out at 2.12 nM. As to `Cc1nc(CC(=O)Nc2cc([C@H]3CC[C@@H](OC(=O)NC(C)C)C3)[nH]n2)ccc1Cl` [Example 282, (1R,3S)-3-(3-{[(5-chloro-6-methylpyridin-2-yl)acetyl]amino}-1H-pyrazol-5-yl)cyclopentyl propan-2-ylcarbamate], the Ki is 2.34 nM. For `CC(C)NC(=O)O[C@@H]1CC[C@H](c2cc(NC(=O)Cc3cccc4scnc34)n[nH]2)C1` [Example 283, (1R,3S)-3-{3-[(1,3-benzothiazol-4-ylacetyl)amino]-1H-pyrazol-5-yl}cyclopentyl propan-2-ylcarbamate], the Ki was 4.6 nM. For `CC(C)NC(=O)O[C@@H]1CC[C@H](c2cc(NC(=O)Cc3cccc4ncsc34)n[nH]2)C1` [Example 284, (1R,3S)-3-{3-[(1,3-benzothiazol-7-ylacetyl)amino]-1H-pyrazol-5-yl}cyclopentyl propan-2-ylcarbamate], the Ki was found to be 0.6 nM. `COc1cc(CC(=O)Nc2cc([C@H]3CC[C@@H](OC(=O)NC(C)C)C3)[nH]n2)c(OC)cn1` [Example 285, (1R,3S)-3-(3-{[(2,5-dimethoxypyridin-4-yl)acetyl]amino}-1H-pyrazol-5-yl)cyclopentyl propan-2-ylcarbamate]: the inhibition constant (Ki) was found to be 3.97 nM.

For `CC(C)NC(=O)O[C@@H]1CC[C@H](c2cc(NC(=O)Cc3ccc(C(F)(F)F)cn3)n[nH]2)C1` [Example 286, (1R,3S)-3-[3-({[5-(trifluoromethyl)pyridin-2-yl]acetyl}amino)-1H-pyrazol-5-yl]cyclopentyl propan-2-ylcarbamate], the inhibitory constant (Ki) was determined as 4.14 nM. With `CC(C)NC(=O)O[C@@H]1CC[C@H](c2cc(NC(=O)Cc3cnc(C(F)(F)F)cn3)n[nH]2)C1` [Example 287, (1R,3S)-3-[3-({[5-(trifluoromethyl)pyrazin-2-yl]acetyl}amino)-1H-pyrazol-5-yl]cyclopentyl propan-2-ylcarbamate], the Ki came out at 2.26 nM. For the compound `COc1ccc(S(C)(=O)=O)c(CC(=O)Nc2cc([C@H]3CC[C@@H](OC(=O)NC(C)C)C3)[nH]n2)c1` [Example 288, (1R,3S)-3-[3-({[5-methoxy-2-(methylsulfonyl)phenyl]acetyl}amino)-1H-pyrazol-5-yl]cyclopentyl propan-2-ylcarbamate], the Ki was 0.39 nM.
